Results on three molecules are retold here after PMC2706530 (Hypertension, 2009).

Common to all, as to assay type: biochemical
In one assay the target is aminopeptidase-A (Rattus norvegicus, UniProt P50123). The experiment in a line: Effect of APA inhibitor on ANG-I conversion by isolated rat glomeruli. The note with it: 100 μM amastatin, 1 μM ANG-I.
The subject of another assay is ANG-II type 1-receptor. The experiment in a line: Effect of losartan pre-incubation on ANG-II detection in isolated rat glomeruli. The note with it: pre-incubation with 10 μM losartan, 1 μM ANG-I; data not shown.
A further assay concerns the target T1, neprilysin (Rattus norvegicus, UniProt P07861).
T1 sequence (P07861 1-750): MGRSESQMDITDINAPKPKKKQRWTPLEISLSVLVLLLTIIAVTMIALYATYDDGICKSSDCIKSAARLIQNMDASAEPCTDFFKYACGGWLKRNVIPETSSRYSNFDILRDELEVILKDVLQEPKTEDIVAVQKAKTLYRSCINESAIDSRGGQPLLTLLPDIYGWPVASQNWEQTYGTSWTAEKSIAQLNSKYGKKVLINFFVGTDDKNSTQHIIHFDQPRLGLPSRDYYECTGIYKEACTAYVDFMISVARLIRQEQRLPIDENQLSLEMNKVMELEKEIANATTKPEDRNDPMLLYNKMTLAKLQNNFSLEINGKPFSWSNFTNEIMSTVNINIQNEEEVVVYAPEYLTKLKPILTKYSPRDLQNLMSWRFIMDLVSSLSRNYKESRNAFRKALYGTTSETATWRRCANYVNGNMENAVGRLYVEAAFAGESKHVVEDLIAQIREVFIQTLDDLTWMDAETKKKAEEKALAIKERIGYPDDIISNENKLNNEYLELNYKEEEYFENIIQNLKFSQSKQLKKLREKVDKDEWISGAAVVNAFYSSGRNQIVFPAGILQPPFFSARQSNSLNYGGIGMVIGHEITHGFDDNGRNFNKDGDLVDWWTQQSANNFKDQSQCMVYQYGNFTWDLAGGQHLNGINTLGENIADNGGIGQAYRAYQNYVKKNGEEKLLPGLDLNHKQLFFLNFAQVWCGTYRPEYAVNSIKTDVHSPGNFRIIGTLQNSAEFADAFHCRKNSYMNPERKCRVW
The experiment in a line: Effect of NEP inhibitor on ANG-I conversion by isolated rat glomeruli. The note with it: 10 μM thiorphan, 1 μM ANG-I, 15-90 minutes; p < 0.05 vs. untreated; n=7.

aminopeptidase-A, sequence (P50123 whole entry): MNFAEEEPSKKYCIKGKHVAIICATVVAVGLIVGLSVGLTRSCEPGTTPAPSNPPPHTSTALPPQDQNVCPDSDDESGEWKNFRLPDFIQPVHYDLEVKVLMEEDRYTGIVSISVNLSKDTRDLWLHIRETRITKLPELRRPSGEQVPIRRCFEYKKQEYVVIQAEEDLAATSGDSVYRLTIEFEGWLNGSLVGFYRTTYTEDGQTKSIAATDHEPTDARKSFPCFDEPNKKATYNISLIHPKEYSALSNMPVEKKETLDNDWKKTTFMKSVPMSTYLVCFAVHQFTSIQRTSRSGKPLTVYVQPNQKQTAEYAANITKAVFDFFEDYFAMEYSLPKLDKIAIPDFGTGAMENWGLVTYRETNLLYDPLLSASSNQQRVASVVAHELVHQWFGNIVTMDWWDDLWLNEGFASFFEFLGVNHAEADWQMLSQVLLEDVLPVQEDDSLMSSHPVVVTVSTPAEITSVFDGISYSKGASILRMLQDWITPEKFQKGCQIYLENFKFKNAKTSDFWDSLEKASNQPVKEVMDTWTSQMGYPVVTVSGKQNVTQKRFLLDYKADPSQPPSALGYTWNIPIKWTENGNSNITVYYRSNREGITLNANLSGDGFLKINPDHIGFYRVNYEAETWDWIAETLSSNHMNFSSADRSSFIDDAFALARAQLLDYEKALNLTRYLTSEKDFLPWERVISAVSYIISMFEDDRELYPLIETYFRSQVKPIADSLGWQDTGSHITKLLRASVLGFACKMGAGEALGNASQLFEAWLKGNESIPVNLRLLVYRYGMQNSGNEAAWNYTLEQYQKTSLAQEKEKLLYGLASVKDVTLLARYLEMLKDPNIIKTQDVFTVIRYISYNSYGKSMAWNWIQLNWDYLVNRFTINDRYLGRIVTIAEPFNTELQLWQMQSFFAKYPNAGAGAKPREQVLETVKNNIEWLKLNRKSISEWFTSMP

Regarding `CC(C)C[C@@H](N)[C@H](O)C(=O)N[C@H](C(=O)N[C@H](C(=O)N[C@@H](CC(=O)O)C(=O)O)C(C)C)C(C)C` [amastatin], the “effect on disappearance of ANG-I (APA inhibition)” value on aminopeptidase-A (15-90 minutes, p < 0.05 vs. untreated, n=7) is recorded as “significantly reduced”. The “change in ANG-II, amastatin-treated” value at aminopeptidase-A (60 minutes) is listed as “non-significant increase”. Consider `CCCCc1nc(Cl)c(CO)n1Cc1ccc(-c2ccccc2-c2nn[nH]n2)cc1` [losartan], for which the “effect on detection of ANG-II” value in the assay on ANG-II type 1-receptor was “did not enhance the detection of ANG-II”. Regarding `O=C(O)CNC(=O)C(CS)Cc1ccccc1` (stereo not shown) [thiorphan], the “effect on disappearance of ANG-I (NEP inhibition)” value at neprilysin is reported as “significantly reduced”.
